Patent US8148391B2 (Cephalon, Inc., priority 2006, dated 2012)

Columns and labels:
[1] = target: T1, c-Met (cytoplasmic domain) (Homo sapiens, UniProt P08581); test: c-Met Kinase Assay (same methods as for ALK, with modifications); format: biochemical; details: 1 μM ATP (Km level), 10 ng/mL c-Met; read-out: cMet Activity (c-Met kinase inhibition, IC50 class)
T1 construct: 10 ng/mL c-Met (cytoplasmic domain, Invitrogen Corporation #PV3143); purchased Invitrogen Corporation PV3143
Procedure, shortened: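 Plates were coated with phospholipase C-γ substrate (10 μg/mL) in TBS, and the reaction was started with 10 ng/mL c-Met cytoplasmic domain and run 15 min at 37 °C. Phosphoproduct was detected with Eu-N1-labelled PT66 antibody. IC50 came from a variable-slope sigmoidal fit of percent inhibition vs log concentration.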

[2] = target: T2, baculovirus-expressed ALK (Homo sapiens, UniProt Q9UM73); test: ALK Kinase Assay (ELISA-type, time-resolved fluorescence); format: biochemical; details: 1 μM ATP (Km level), 30 ng/ml ALK, 37° C., 15 minutes; read-out: ALK Activity (ALK kinase inhibition, IC50 class)
T2 construct: host or cells: baculovirus expression system
Procedure, shortened: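 Plates coated with phospholipase C-γ substrate (10 μg/mL in TBS); reaction started with 30 ng/ml ALK and run 15 min at 37° C. Phosphorylated substrate detected with Eu-N1-labeled PT66 antibody. IC50 from sigmoidal variable-slope fit of percent inhibition vs log concentration.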

T2 sequence (Q9UM73 19-1620): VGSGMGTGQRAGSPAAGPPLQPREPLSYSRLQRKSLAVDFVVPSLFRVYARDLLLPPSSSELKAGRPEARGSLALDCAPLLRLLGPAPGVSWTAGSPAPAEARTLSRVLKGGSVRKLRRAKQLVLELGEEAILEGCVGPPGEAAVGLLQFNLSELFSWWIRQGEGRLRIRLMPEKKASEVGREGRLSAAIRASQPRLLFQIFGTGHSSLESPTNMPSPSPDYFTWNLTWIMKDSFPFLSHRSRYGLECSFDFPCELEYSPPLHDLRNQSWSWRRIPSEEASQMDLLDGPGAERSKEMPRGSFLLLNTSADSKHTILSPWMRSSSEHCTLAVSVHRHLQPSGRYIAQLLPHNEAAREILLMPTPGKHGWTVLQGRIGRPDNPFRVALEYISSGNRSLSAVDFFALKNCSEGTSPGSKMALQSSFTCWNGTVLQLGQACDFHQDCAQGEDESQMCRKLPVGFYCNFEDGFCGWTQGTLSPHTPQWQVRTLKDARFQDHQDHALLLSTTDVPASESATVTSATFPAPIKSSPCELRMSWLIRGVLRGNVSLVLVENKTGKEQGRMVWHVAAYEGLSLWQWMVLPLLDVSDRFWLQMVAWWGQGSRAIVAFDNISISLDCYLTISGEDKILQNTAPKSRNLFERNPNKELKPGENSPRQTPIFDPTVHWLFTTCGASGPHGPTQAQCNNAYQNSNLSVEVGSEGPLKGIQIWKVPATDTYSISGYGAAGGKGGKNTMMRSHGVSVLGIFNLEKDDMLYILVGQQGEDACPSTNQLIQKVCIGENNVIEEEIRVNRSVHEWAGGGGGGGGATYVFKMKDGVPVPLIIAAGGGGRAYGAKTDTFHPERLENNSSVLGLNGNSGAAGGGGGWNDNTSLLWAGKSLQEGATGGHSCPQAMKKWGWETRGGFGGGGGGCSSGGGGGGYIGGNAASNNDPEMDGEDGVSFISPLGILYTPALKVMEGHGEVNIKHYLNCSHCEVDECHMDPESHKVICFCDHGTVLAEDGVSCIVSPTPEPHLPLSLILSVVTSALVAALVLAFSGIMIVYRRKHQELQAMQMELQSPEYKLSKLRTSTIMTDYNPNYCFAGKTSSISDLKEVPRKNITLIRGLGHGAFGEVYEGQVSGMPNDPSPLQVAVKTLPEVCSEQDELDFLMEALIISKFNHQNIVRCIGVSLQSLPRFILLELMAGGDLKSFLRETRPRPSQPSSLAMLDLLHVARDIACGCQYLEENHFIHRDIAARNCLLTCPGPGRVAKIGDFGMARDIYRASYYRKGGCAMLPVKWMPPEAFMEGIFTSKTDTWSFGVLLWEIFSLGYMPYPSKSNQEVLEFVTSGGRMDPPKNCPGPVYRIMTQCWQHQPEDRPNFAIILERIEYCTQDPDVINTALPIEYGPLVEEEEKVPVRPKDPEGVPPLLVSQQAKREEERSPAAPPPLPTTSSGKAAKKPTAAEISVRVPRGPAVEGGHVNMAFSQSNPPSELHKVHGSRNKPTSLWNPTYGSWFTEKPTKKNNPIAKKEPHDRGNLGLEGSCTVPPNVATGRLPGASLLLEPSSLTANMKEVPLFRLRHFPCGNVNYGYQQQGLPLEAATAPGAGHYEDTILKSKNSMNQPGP
T1 sequence (P08581 956-1390 limits assumed): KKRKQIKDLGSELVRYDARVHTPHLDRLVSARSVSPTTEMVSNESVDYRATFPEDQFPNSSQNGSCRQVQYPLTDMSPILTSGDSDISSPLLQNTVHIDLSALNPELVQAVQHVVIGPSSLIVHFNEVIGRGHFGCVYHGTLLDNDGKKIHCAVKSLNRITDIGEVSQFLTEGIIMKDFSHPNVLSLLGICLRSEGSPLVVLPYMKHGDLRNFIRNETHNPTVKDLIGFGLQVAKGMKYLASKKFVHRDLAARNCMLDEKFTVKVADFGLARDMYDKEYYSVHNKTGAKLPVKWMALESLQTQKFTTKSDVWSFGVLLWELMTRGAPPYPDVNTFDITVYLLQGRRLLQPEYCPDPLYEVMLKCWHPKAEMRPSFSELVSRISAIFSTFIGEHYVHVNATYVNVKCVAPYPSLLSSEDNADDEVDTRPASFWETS

For `CC(C)S(=O)(=O)c1ccccc1Nc1nc(Nc2ccc3c(c2)CCC(N2CCOCC2)CC3)ncc1Cl` (centres unmarked) [Example 1036, 5-Chloro-N*2*-(7-morpholin-4-yl-6,7,8,9-tetrahydro-5H-benzocyclohepten-2-yl)-N*4*-[2-(propane-2-sulfonyl)-phenyl]-pyrimidine-2,4-diamine], the IC50 [1] was 100 to 1000 nM and the IC50 [2] was less than 100 nM.

With `CC(C)S(=O)(=O)c1ccccc1Nc1nc(Nc2ccc3c(c2)CCC(O)CC3)ncc1Cl` (centres unmarked) [Example 1037, 2-{5-Chloro-4-[2-(propane-2-sulfonyl)-phenylamino]-pyrimidin-2-ylamino}-6,7,8,9-tetrahydro-5H-benzocyclohepten-7-ol] the IC50 [1] was 100 to 1000 nM and the IC50 [2] was less than 100 nM.

`Cc1cccc(C(=O)NCC#N)c1Nc1nc(Nc2ccc3c(c2)C(C)(C)CCC(=O)N3)ncc1Cl` [Example 1038, 2-[5-Chloro-2-(5,5-dimethyl-2-oxo-2,3,4,5-tetrahydro-1H-benzo[b]azepin-7-ylamino)-pyrimidin-4-ylamino]-N-cyanomethyl-3-methyl-benzamide] showed an IC50 [1] of 100 to 1000 nM and an IC50 [2] of less than 100 nM.

In the case of `Cc1cccc(C(=O)NCC#N)c1Nc1nc(Nc2ccc3c(c2)CCCC(=O)N3C)ncc1Cl` [Example 1039, 2-[5-Chloro-2-(1-methyl-2-oxo-2,3,4,5-tetrahydro-1H-benzo[b]azepin-7-ylamino)-pyrimidin-4-ylamino]-N-cyanomethyl-3-methyl-benzamide], the IC50 [1] is reported as 100 to 1000 nM and the IC50 [2] is reported as 1000 to 10000 nM.

`COCCN1CCc2ccc(Nc3ncc(Cl)c(Nc4c(C)cccc4C(=O)NCC#N)n3)cc2CC1` [Example 1040, 2-{5-Chloro-2-[3-(2-methoxy-ethyl)-2,3,4,5-tetrahydro-1H-benzo[d]azepin-7-ylamino]-pyrimidin-4-ylamino}-N-cyanomethyl-3-methyl-benzamide] gave an IC50 [1] of 100 to 1000 nM and an IC50 [2] of 100 to 1000 nM.

In the case of `CC1(C)CCC(=O)Nc2ccc(Nc3ncc(Cl)c(Nc4c(F)cccc4C(=O)NCCC#N)n3)cc21` [Example 1041, 2-[5-Chloro-2-(5,5-dimethyl-2-oxo-2,3,4,5-tetrahydro-1H-benzo[b]azepin-7-ylamino)-pyrimidin-4-ylamino]-N-(2-cyano-ethyl)-3-fluoro-benzamide], the IC50 [1] is reported as 100 to 1000 nM and the IC50 [2] is reported as less than 100 nM.

In the case of `CN1C(=O)CCCc2cc(Nc3ncc(Cl)c(Nc4c(F)cccc4C(=O)NCCC#N)n3)ccc21` [Example 1042, 2-[5-Chloro-2-(1-methyl-2-oxo-2,3,4,5-tetrahydro-1H-benzo[b]azepin-7-ylamino)-pyrimidin-4-ylamino]-N-(2-cyano-ethyl)-3-fluoro-benzamide], the IC50 [1] is reported as less than 100 nM and the IC50 [2] is reported as 100 to 1000 nM.

In the case of `COCCN1CCc2ccc(Nc3ncc(Cl)c(Nc4c(F)cccc4C(=O)NCCC#N)n3)cc2CC1` [Example 1043, 2-{5-Chloro-2-[3-(2-methoxy-ethyl)-2,3,4,5-tetrahydro-1H-benzo[d]azepin-7-ylamino]-pyrimidin-4-ylamino}-N-(2-cyano-ethyl)-3-fluoro-benzamide], the IC50 [1] is reported as less than 100 nM and the IC50 [2] is reported as 100 to 1000 nM.

Work on `CC1(C)CCC(=O)Nc2ccc(Nc3ncc(Cl)c(Nc4c(F)cccc4C(=O)NCC#N)n3)cc21` [Example 1044, 2-[5-Chloro-2-(5,5-dimethyl-2-oxo-2,3,4,5-tetrahydro-1H-benzo[b]azepin-7-ylamino)-pyrimidin-4-ylamino]-N-cyanomethyl-3-fluoro-benzamide] yielded an IC50 [1] of less than 100 nM and an IC50 [2] of less than 100 nM.

`CN1C(=O)CCCc2cc(Nc3ncc(Cl)c(Nc4c(F)cccc4C(=O)NCC#N)n3)ccc21` [Example 1045, 2-[5-Chloro-2-(1-methyl-2-oxo-2,3,4,5-tetrahydro-1H-benzo[b]azepin-7-ylamino)-pyrimidin-4-ylamino]-N-cyanomethyl-3-fluoro-benzamide] was tested, and the IC50 [1] was less than 100 nM and the IC50 [2] was less than 100 nM.

Molecule `N#CCNC(=O)c1cccc(F)c1Nc1nc(Nc2ccc3c(c2)CCCC(=O)N3)ncc1Cl` [Example 1046, 2-[5-Chloro-2-(2-oxo-2,3,4,5-tetrahydro-1H-benzo[b]azepin-7-ylamino)-pyrimidin-4-ylamino]-N-cyanomethyl-3-fluoro-benzamide] has an IC50 [1] of less than 100 nM and an IC50 [2] of less than 100 nM.

`COc1cc2c(cc1Nc1ncc(Cl)c(Nc3ccccc3S(=O)(=O)N(C)C)n1)CCC(N1CCOCC1)CC2` (centres unmarked) [Example 1049, 2-[5-Chloro-2-(3-methoxy-7-morpholin-4-yl-6,7,8,9-tetrahydro-5H-benzocyclohepten-2-ylamino)-pyrimidin-4-ylamino]-N,N-dimethyl-benzenesulfonamide] gave an IC50 [1] greater than 10000 nM and an IC50 [2] of less than 100 nM.

With `COc1cc2c(cc1Nc1ncc(Cl)c(Nc3ccccc3S(=O)(=O)C(C)C)n1)CCC(N1CCOCC1)CC2` (centres unmarked) [Example 1050, 5-Chloro-N*2*-(3-methoxy-7-morpholin-4-yl-6,7,8,9-tetrahydro-5H-benzocyclohepten-2-yl)-N*4*-[2-(propane-2-sulfonyl)-phenyl]-pyrimidine-2,4-diamine] the IC50 [1] was greater than 10000 nM and the IC50 [2] was less than 100 nM.

With `COc1cc2c(cc1Nc1ncc(Cl)c(N[C@@H]3CCCC[C@H]3NS(C)(=O)=O)n1)CCC(N1CCOCC1)CC2` (stereo partly drawn) [Example 1051, N-{(1R,2R)-2-[5-Chloro-2-(3-methoxy-7-morpholin-4-yl-6,7,8,9-tetrahydro-5H-benzocyclohepten-2-ylamino)-pyrimidin-4-ylamino]-cyclohexyl}-methanesulfonamide] the IC50 [1] was greater than 10000 nM and the IC50 [2] was less than 100 nM.

Molecule `COc1cc2c(cc1Nc1ncc(Cl)c(Nc3ccccc3-n3cccn3)n1)CCC(N1CCOCC1)CC2` (centres unmarked) [Example 1052, 5-Chloro-N*2*-(3-methoxy-7-morpholin-4-yl-6,7,8,9-tetrahydro-5H-benzocyclohepten-2-yl)-N*4*-(2-pyrazol-1-yl-phenyl)-pyrimidine-2,4-diamine] has an IC50 [1] greater than 10000 nM and an IC50 [2] of less than 100 nM.

Work on `COc1cc2c(cc1Nc1ncc(Cl)c(Nc3ccccc3S(=O)(=O)N(C)C)n1)CCC(NCC(F)F)CC2` (centres unmarked) [Example 1055, 2-{5-Chloro-2-[7-(2,2-difluoro-ethylamino)-3-methoxy-6,7,8,9-tetrahydro-5H-benzocyclohepten-2-ylamino]-pyrimidin-4-ylamino}-N,N-dimethyl-benzenesulfonamide] yielded an IC50 [1] greater than 10000 nM and an IC50 [2] of less than 100 nM.

`COc1cc2c(cc1Nc1ncc(Cl)c(Nc3ccccc3S(=O)(=O)C(C)C)n1)CCC(NCC(F)F)CC2` (centres unmarked) [Example 1056, 5-Chloro-N*2*-[7-(2,2-difluoro-ethylamino)-3-methoxy-6,7,8,9-tetrahydro-5H-benzocyclohepten-2-yl]-N*4*-[2-(propane-2-sulfonyl)-phenyl]-pyrimidine-2,4-diamine] showed an IC50 [1] of 1000 to 10000 nM and an IC50 [2] of less than 100 nM.

`COc1cc2c(cc1Nc1ncc(Cl)c(Nc3ccccc3-n3cccn3)n1)CCC(NCC(F)F)CC2` (centres unmarked) [Example 1059, 5-Chloro-N*2*-[7-(2,2-difluoro-ethylamino)-3-methoxy-6,7,8,9-tetrahydro-5H-benzocyclohepten-2-yl]-N*4*-(2-pyrazol-1-yl-phenyl)-pyrimidine-2,4-diamine] showed an IC50 [1] greater than 10000 nM and an IC50 [2] of less than 100 nM.

`COCCN1CCc2ccc(Nc3ncc(Cl)c(Nc4c(OC)cccc4C(=O)NCCC#N)n3)cc2CC1` [Example 1060, 2-{5-Chloro-2-[3-(2-methoxy-ethyl)-2,3,4,5-tetrahydro-1H-benzo[d]azepin-7-ylamino]-pyrimidin-4-ylamino}-N-(2-cyano-ethyl)-3-methoxy-benzamide] showed an IC50 [1] of 1000 to 10000 nM and an IC50 [2] of 1000 to 10000 nM.
